Molecular target: T1, VEGFR-2 (KDR) (Homo sapiens, UniProt P35968)
T1 construct: purchased Invitrogen PV3660
Assay: Transcreener Kinase Assay of VEGFR-2 (KDR)
Format: biochemical
Details: recombinant human KDR, Transcreener FP
Description: Transcreener Kinase Assay of VEGFR-2 (KDR)
• 1) Transcreenen™ KINASE Assy kit: Bellbrook Labs., 3003-10K; • 2) Recombinant human KDR: Invitrogen, PV3660; • 3) Poly E4Y (substrate): Sigma, P0275; 5 mg/mL, dissolved in MilliQ water; • 4) Assay buffer: 67 mM HEPES, 0.013% Triton X-100, 27 mM MgCl2, 0.67 mM MnCl2, 1.25 mM DTT, PH 7.4; • 5) 10 mM ATP: Invitrogen, PV3227; • 6) 500 mM EDTA: Invitrogen, 15575-038; • 7) 96 well black Greiner plate: Greiner, 675076.
• 1) Dilute the compound to 5 folds of final concentrations, keeping the DMSO concentration at 5%. The final concentrations are 1, 0.33, 0.11, 0.037, 0.012, 0.004, 0.0014, 0.0005 μM; and the final concentration of DMSO is 1%. • 2) Prepare Enzyme/Substrate stock, Recombinant human KDR and Poly E4Y are both diluted in assay buffer. The final concentration is KDR (0.3 ng/μL), Poly E4Y (62.5 ng/μL). […]
Wherein: • 1) Compound well [ADP] represents the ADP concentration of compound well. • 2) Positive control well [ADP] represents the ADP concentration of 5% DMSO well • 3) Conversion of mP value to ADP concentration based on the formula which determined by standard curve. […] (www.bellbrooklabs.com). • IC50: calculated using XL-Fit 2.0 software.

T1 sequence (P35968 20-1356): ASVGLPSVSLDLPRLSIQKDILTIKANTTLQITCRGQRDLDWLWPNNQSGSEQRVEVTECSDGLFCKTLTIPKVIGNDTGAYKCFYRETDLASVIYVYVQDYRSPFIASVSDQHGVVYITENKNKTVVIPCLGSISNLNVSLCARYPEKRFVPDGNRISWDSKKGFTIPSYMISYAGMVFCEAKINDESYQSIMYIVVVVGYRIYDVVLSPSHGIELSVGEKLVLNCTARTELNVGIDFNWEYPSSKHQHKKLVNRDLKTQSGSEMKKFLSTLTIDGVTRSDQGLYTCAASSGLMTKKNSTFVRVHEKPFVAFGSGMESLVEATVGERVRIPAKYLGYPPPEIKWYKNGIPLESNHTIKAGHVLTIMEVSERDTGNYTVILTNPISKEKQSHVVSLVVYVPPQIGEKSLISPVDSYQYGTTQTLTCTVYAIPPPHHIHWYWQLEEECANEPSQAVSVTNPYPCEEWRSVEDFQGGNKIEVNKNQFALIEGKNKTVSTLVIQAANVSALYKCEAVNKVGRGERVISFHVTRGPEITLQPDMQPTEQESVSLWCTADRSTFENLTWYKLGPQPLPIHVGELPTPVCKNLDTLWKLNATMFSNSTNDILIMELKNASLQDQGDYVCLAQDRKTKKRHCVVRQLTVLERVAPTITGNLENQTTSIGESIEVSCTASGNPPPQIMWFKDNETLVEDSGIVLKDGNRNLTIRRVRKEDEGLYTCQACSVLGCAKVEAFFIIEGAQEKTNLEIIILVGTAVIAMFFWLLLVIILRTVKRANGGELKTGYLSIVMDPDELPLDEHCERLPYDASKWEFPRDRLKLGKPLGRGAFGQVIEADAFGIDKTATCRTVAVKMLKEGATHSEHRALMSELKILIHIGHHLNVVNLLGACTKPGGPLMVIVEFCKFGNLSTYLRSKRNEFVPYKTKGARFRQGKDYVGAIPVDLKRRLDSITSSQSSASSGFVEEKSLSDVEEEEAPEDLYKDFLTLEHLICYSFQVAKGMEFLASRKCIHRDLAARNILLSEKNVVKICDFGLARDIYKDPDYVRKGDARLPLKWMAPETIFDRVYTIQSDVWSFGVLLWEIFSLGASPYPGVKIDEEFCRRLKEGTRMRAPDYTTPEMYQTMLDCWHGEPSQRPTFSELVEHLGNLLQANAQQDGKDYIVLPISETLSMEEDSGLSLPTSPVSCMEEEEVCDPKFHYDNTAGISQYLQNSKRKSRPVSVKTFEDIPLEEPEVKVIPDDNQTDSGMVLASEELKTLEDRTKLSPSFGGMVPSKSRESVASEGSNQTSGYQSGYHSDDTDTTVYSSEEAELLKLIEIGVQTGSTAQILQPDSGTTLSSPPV

Structure (SMILES)	IC50
CC(=O)N1CCO[C@H](COc2nc(-c3ccc4c(c3)CCOC4(C)C)cc3nccnc23)C1 [Compound 300]	1130 nM
CC(C)(O)c1ccc(-c2cc3nccnc3c(OC[C@@H]3CN(S(C)(=O)=O)CCO3)n2)cc1 [Compound 219]	748 nM

Source: patent US20170152258A9, “Substituted Pyridopyrazines as Syk Inhibitors” (HUTCHISON MEDIPHARMA LIMITED, priority 2012, published 2017)
